We go through six molecules from PMC3629230, “Permeability Enhancers Dramatically Increase Zanamivir Absolute Bioavailability in Rats: Implications for an Orally Bioavailable Influenza Treatment” (PLoS ONE, 2013).

Where two headings read alike, the source gives them in different places.

The conditions of series [1]: cited from earlier work.
In a further series the test system is neuraminidase. Particulars: more potent; cited from earlier work.
The next series concerns Caco-2 cell monolayers. Briefly: Unidirectional (A-to-B) permeability of zanamivir across Caco-2 cell monolayers with and without excipients. Format: in vitro ADME. Particulars: initial screening, glycerol and Capmul MCM L8, results not shown. As for the experimental part:
Caco-2 cells were obtained from American Type Culture Collection (Rockville, MD). Stock cultures were maintained in flasks with DMEM medium supplemented with 10% FBS, 1% non-essential amino acids, 1 mmol/L sodium pyruvate, 100 IU/mL penicillin, and 100 µg/mL streptomycin in a humidified incubator (37°C, 5% CO2). Cells were harvested by trypsinization and seeded at 60,000 cells/cm^2 onto Costar Transwell® 12-well dual-chamber plates with collagen-coated, microporous polycarbonate membranes (1.13 cm^2 insert area, 0.4 µm pore size; Corning Life Sciences, Acton, MA) for permeability studies. The culture medium was changed three times per week.
Caco-2 cell monolayers that had grown for at least 20 days were subjected to batch quality control testing in which permeation rates were measured for atenolol, digoxin, estrone-3-sulfate, lucifer yellow (LY), and propranolol. In addition, the transepithelial electrical resistance (TEER) across each experimental monolayer was tested prior to an experiment.
Unidirectional (A-to-B) permeability of zanamivir was determined at 15 µg/mL in the absence and presence of varying concentrations of excipients in Caco-2 cell monolayers. The assay buffer was Hanks' balanced salt solution (HBSS) supplemented with 10 mM 4-(2-hydroxyethyl)-1-piperazineethanesulfonic acid (HEPES) and 15 mM D-glucose (HBSSg), pH 7.4. The dosing solutions on the apical side (0.5 mL) contained either zanamivir and excipients at each concentration being tested or zanamivir only (n = 4), while the receiver buffer in the bottom well (1.5 mL) was always excipient-free. The Caco-2 cell monolayers were incubated for 120 min in a humidified incubator (37°C, 5% CO2) after dosing in the apical chambers. Aliquots (200 µL each) of receiver buffer were sampled at 60 min, 90 min, and 120 min after dosing, with replacement by the same volume of blank buffer (at 60 min and 90 min). Donors were sampled at 0 and 120 min.
Experimental samples were identically treated.

With `CCOC(=O)C1=CC(OC(CC)CC)C(NC(C)=O)C(NC(=N)N)C1` (stereo not shown) [GL4116 ethyl ester], the Oral bioavailability result in series [1] (in vivo, po) is given as “under 5%”.
Regarding `CCC(CC)OC1C=C(C(=O)O)CC(NC(=N)N)C1NC(C)=O` (stereo not shown) [GS4116 carboxylate], the “Inhibitor potency relative to oseltamivir carboxylate” value in the series on neuraminidase is 10 fold. For the same molecule, in series [1] (in vivo, po), the Oral bioavailability result was “under 5%”.
For the molecule `CO[C@@H]([C@@H]1OC(C(=O)O)=C[C@H](NC(=N)N)[C@H]1NC(C)=O)[C@H](O)CO` [laninamivir], in series [1], the Oral bioavailability entry was “under 2%”.
As to `CCC(CC)O[C@@H]1C=C(C(=O)O)C[C@H](N)[C@H]1NC(C)=O` [oseltamivir carboxylate], in series [1] (in vivo, po), the Oral bioavailability is 2%. For the same molecule, the Absolute bioavailability result in series [1] (in vivo) was “under 5%”.
Take `CCOC(=O)C1=C[C@@H](OC(CC)CC)[C@H](NC(C)=O)[C@@H](N)C1` [oseltamivir]: in series [1] (in vivo, po), the Oral bioavailability result is “at least 35%”. The Absolute bioavailability in series [1] (in vivo) is recorded as no less than 35%.
Consider `CCC(CC)[C@H](NC(C)=O)[C@@H]1[C@H](O)[C@@H](C(=O)O)C[C@H]1N=C(N)N` [peramivir], for which, in the series with Caco-2 cell monolayers, the “Drug transport across Caco-2 cell monolayers with enhancers” value was “substantially increased drug transport”. Moreover, the Oral bioavailability result in series [1] is listed as “under 2%”.
